# In the supplement of paper PMC10307832:
# Experiments:
# Test in all cases: relative viability (nuclei count vs DMSO), 5 days (fraction); higher = more cells survive
# [1] = compound: O=C1NC(=O)[C@@H](c2cn3c4c(cccc24)CCC3)[C@@H]1c1c[nH]c2ccccc12 [Tivantinib] + Nc1ncn([C@H]2C[C@H](O)[C@@H](CO)O2)c(=O)n1 [Decitabine] (partner 2 µM)
# How it was run: (§1)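 The day after seeding in 1536-well plates, lung cancer cell lines were treated by pin tool with a single drug, or with a fixed anchor-drug dose together with five library-drug doses (not always all listed) in √10 steps. After 5 days, a combined fix-and-stain solution (final 0.05% Triton X-100, 1% formaldehyde, 1 ug/ml Hoechst) was added. Nuclei counted on 4× images gave relative viability as treated counts over vehicle counts, reported as the median of duplicate plates.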
# [2] = compound: CC1(COc2ccc3c(c2)ncn3-c2ccc3cccc(N4CCC(N)CC4)c3n2)COC1 [Crenolanib] + CC(=O)c1c(C)c2cnc(Nc3ccc(N4CCNCC4)cn3)nc2n(C2CCCC2)c1=O [Palbociclib] (partner 0.5 µM)
# How it was run: as §1
# [3] = compound: O=C1NC(=O)[C@@H](c2cn3c4c(cccc24)CCC3)[C@@H]1c1c[nH]c2ccccc12 [Tivantinib] + N=C(N)NC(=N)NCCc1ccccc1 [Phenformin] (partner 250 µM)
# How it was run: as §1
# [4] = compound: O=C1NC(=O)[C@@H](c2cn3c4c(cccc24)CCC3)[C@@H]1c1c[nH]c2ccccc12 [Tivantinib] + O=C(CCCCCCC(=O)Nc1ccccc1)NO [Vorinostat] (partner 1 µM)
# How it was run: as §1
cell line,measurement,setting,value
UMC-11,relative viability,[1]; first compound 0.01 µM,0.574
same,relative viability,[1]; first compound 0.03162 µM,0.532
same,relative viability,[1]; first compound 0.1 µM,0.527
same,relative viability,[1]; first compound 0.3162 µM,0.434
same,relative viability,[2]; first compound 0.01 µM,0.391
same,relative viability,[2]; first compound 0.03162 µM,0.334
same,relative viability,[2]; first compound 0.1 µM,0.349
same,relative viability,[2]; first compound 0.3162 µM,0.286
same,relative viability,[2]; first compound 1 µM,0.352
same,relative viability,[3]; first compound 0.01 µM,0.331
same,relative viability,[3]; first compound 0.03162 µM,0.338
same,relative viability,[3]; first compound 0.1 µM,0.289
same,relative viability,[3]; first compound 0.3162 µM,0.371
same,relative viability,[4]; first compound 0.01 µM,0.383
same,relative viability,[4]; first compound 0.03162 µM,0.392
same,relative viability,[4]; first compound 0.1 µM,0.328
same,relative viability,[4]; first compound 0.3162 µM,0.385
